Results on 15 molecules are retold here after PubChem BioAssay (NCI).

Some test systems named below: A549 NSCLC; CAKI-1 renal; DLD-1 colon; DMS 114 small cell lung; HCT-116 colon; IGROV1 ovarian; K-562 leukemia; NCI-H522 lung; OVCAR-4 ovarian; MDA-MB-231 breast.
Experiment in all cases: NCI-60 cell line screen, 48 h

Structures are written as SMILES. In brackets after ≈: the same amount, converted by molar mass. Several values for one entry are separate records, joined by “and”; a condition that tells them apart may be missing. Equal entries are not always repeated.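 These data come from cells grown in 96-well plates and exposed to compound for 48 hours at five concentrations. GI50 is the concentration that inhibits growth by half. TGI marks complete inhibition of growth.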

As for `COC1CCC(=C2C(=O)OC(C)(C)OC2=O)N1` (stereo not given), the TGI in the assay on A549 NSCLC, in the assay with CAKI-1 renal, in the assay on DLD-1 colon, in the assay on DMS 114 small cell lung, in the assay with HCT-116 colon and with IGROV1 ovarian was more than 100 µM throughout. For the same molecule, the TGI in the assay with K-562 leukemia, with NCI-H522 lung and in the assay on OVCAR-4 ovarian was more than 100 µM in each case.
Consider `O=C(Nc1ccc(Cl)cc1)NS(=O)(=O)c1ccc2c(c1)CCC2`, for which the GI50 in the assay on A549 NSCLC is 11.9 µg/mL; in the assay on DLD-1 colon, 19.5 µg/mL (≈ 55.5 µM); in the assay on HCT-116 colon, 8.93 µg/mL; in the assay with IGROV1 ovarian, 4.37 µg/mL; in the assay on K-562 leukemia it was 11.3 µg/mL; in the assay on NCI-H522 lung, 4.86 µg/mL. Also, the GI50 in the assay on OVCAR-4 ovarian is 37.9 µg/mL. Further, the TGI is 97.7 µM and 31.3 µg/mL with A549 NSCLC; more than 100 µM in the assay with CAKI-1 renal; > 100 µM and 41.1 µg/mL with DLD-1 colon; more than 100 µM with DMS 114 small cell lung; > 67.3 µM and 27.9 µg/mL in the assay with HCT-116 colon; 94.3 µM and 18.7 µg/mL with IGROV1 ovarian. In addition, the TGI in the assay on K-562 leukemia was > 77.1 µM and 150 µg/mL; in the assay with NCI-H522 lung it was 94.1 µM and 12.5 µg/mL; in the assay with OVCAR-4 ovarian, > 100 µM and 88.1 µg/mL.
Take `CCCCNC(=S)Nn1c(-c2ccccc2)nc2ccccc2c1=O`: the TGI in the assay with A549 NSCLC, in the assay with CAKI-1 renal, in the assay on DLD-1 colon, in the assay with DMS 114 small cell lung, in the assay on HCT-116 colon and in the assay with IGROV1 ovarian was more than 100 µM in each case. In addition, the TGI in the assay with K-562 leukemia, in the assay on NCI-H522 lung and with OVCAR-4 ovarian was more than 100 µM in each case.
Take `COc1ccc(CN(O)C2C(CO)OC(n3cc(I)c(=O)[nH]c3=O)C2O)cc1` (stereo not given): the TGI in the assay on A549 NSCLC, in the assay with CAKI-1 renal, in the assay on DLD-1 colon, with DMS 114 small cell lung, in the assay on HCT-116 colon and with IGROV1 ovarian was more than 100 µM in each case. For the same molecule, the TGI in the assay on K-562 leukemia, in the assay with NCI-H522 lung and in the assay on OVCAR-4 ovarian was more than 100 µM each time.
Take `CC(=O)Oc1c(-c2ccccc2)[nH]c2cc([N+](=O)[O-])c(/C(Cl)=C/c3ccccc3)cc12`: the TGI with A549 NSCLC was 44.5 µM; in the assay with CAKI-1 renal, 69.2 µM; with DLD-1 colon, more than 100 µM; in the assay on DMS 114 small cell lung, 7.72 µM; in the assay with HCT-116 colon, 17.3 µM; with IGROV1 ovarian, 65.8 µM. In addition, the TGI is more than 100 µM in the assay with K-562 leukemia, 18.5 µM in the assay with NCI-H522 lung and 39.3 µM in the assay with OVCAR-4 ovarian.
Turning to `C[N+](C)(C)CC(=O)N/N=C(/C=C/c1ccccc1)CC1OC(=O)c2ccccc21` (stereo not given), the TGI in the assay on A549 NSCLC, in the assay on CAKI-1 renal, with DLD-1 colon, in the assay with DMS 114 small cell lung, in the assay on HCT-116 colon and in the assay with IGROV1 ovarian was more than 100 µM each time. Besides, the TGI with K-562 leukemia, in the assay on NCI-H522 lung and in the assay with OVCAR-4 ovarian was more than 100 µM throughout.
For the molecule `COC(=O)C1=C(O)C(O)=C(C(=O)OC)CC1`, the TGI was more than 100 µM in the assay with A549 NSCLC; more than 100 µM in the assay with CAKI-1 renal; more than 100 µM with DLD-1 colon; more than 100 µM in the assay on DMS 114 small cell lung; 28.9 µM in the assay with HCT-116 colon; more than 100 µM in the assay with IGROV1 ovarian. For the same molecule, the TGI with K-562 leukemia, in the assay with NCI-H522 lung and with OVCAR-4 ovarian was more than 100 µM each time.
As for `CC(C)c1ccc2c(c1)CCC1C(C)(C)[C@@H](O)CC[C@]21C` (stereo not given in full), the TGI is more than 100 µM in the assay on A549 NSCLC; more than 100 µM in the assay with CAKI-1 renal; more than 100 µM with DLD-1 colon; more than 100 µM in the assay with DMS 114 small cell lung; 34.1 µM in the assay on HCT-116 colon; more than 100 µM in the assay on IGROV1 ovarian. Further, the TGI with K-562 leukemia is more than 100 µM; with NCI-H522 lung it was 79 µM; with OVCAR-4 ovarian, more than 100 µM.
As for `CC(C)NC(=O)OCc1nnn2c1C(OC(=O)NC(C)C)CC2` (stereo not given), the TGI with A549 NSCLC, in the assay with CAKI-1 renal, in the assay on DLD-1 colon, with DMS 114 small cell lung, in the assay on HCT-116 colon and with IGROV1 ovarian was more than 100 µM in each case. Also, the TGI in the assay on K-562 leukemia, in the assay on NCI-H522 lung and in the assay with OVCAR-4 ovarian was more than 100 µM each time.
In the case of `N#Cc1c([N+](=O)[O-])cc(C(F)(F)F)cc1[N+](=O)[O-]`, the TGI with A549 NSCLC worked out at 37.6 µM; in the assay with CAKI-1 renal, 8.94 µM; in the assay with DLD-1 colon, 16.7 µM; in the assay with DMS 114 small cell lung it was 3.93 µM; in the assay on HCT-116 colon, 20 µM; with IGROV1 ovarian, 20.8 µM. Also, the TGI came to 5.08 µM in the assay on K-562 leukemia, 1.24 µM in the assay on NCI-H522 lung and 5.57 µM in the assay on OVCAR-4 ovarian.
In the case of `CC(=O)OCC1OC(n2cc(F)c(=O)[nH]c2=O)C(OC(C)=O)C1OC(C)=O` (stereo not given), the TGI was more than 100 µM in the assay with A549 NSCLC; more than 100 µM in the assay on CAKI-1 renal; more than 100 µM with DLD-1 colon; more than 100 µM in the assay with DMS 114 small cell lung; 71.8 µM in the assay on HCT-116 colon; more than 100 µM in the assay on IGROV1 ovarian. Moreover, the TGI was more than 100 µM in the assay on K-562 leukemia, more than 56.2 µM in the assay with MDA-MB-231 breast, more than 95.5 µM with NCI-H522 lung and more than 90.3 µM with OVCAR-4 ovarian.
Turning to `Cc1cc(O)c2c(c1)C[C@@H](O)C1=C2C(=O)c2c(O)ccc(OC3CC(O)C(OC4CC(OC5CCC(OC6CC(O)C(OC7CC(OC8CCC(O)C(C)O8)C(O)C(C)O7)C(C)O6)C(C)O5)C(O)C(C)O4)C(C)O3)c2C1=O` (stereo not given in full), the GI50 with A549 NSCLC was 2.38 µM; in the assay with CAKI-1 renal, 0.398 µM and 0.439 µM; in the assay with HCT-116 colon, 0.38 µM and 0.281 µM; in the assay with IGROV1 ovarian, 1.14 µM; in the assay with K-562 leukemia it was 0.144 µM; in the assay on MDA-MB-231 breast, 0.433 µM and 0.251 µM. Moreover, the GI50 is 0.0888 µM and 0.176 µM in the assay on NCI-H522 lung; 0.326 µM in the assay with OVCAR-4 ovarian. For the same molecule, the TGI with CAKI-1 renal is 0.274 µM and 1.18 µM and 1.45 µM; in the assay on DLD-1 colon, 0.0426 µM; in the assay on DMS 114 small cell lung, 0.0378 µM; with IGROV1 ovarian it was 0.344 µM and 2.47 µM; in the assay with K-562 leukemia, 0.267 µM and 0.457 µM; in the assay with MDA-MB-231 breast, 0.259 µM and 1.49 µM and 0.549 µM. The TGI in the assay with NCI-H522 lung was 0.0534 µM and 0.217 µM and 0.415 µM.
Consider `COc1c(O)c2ccccc2c2cc(O)ccc12`, for which the TGI in the assay with A549 NSCLC amounted to 23.9 µM; with CAKI-1 renal it was 22.9 µM; in the assay on DLD-1 colon, 25.5 µM; in the assay with DMS 114 small cell lung, 6.03 µM; with HCT-116 colon, 13.8 µM; in the assay on IGROV1 ovarian, 21.6 µM. In addition, the TGI is 21.9 µM with K-562 leukemia, 19.4 µM in the assay with MDA-MB-231 breast, 15.7 µM in the assay with NCI-H522 lung and 22.8 µM with OVCAR-4 ovarian.
For the molecule `CN(C)CCCn1cnc2ncccc2c1=O`, the TGI in the assay with A549 NSCLC, in the assay on CAKI-1 renal, in the assay on DLD-1 colon, with DMS 114 small cell lung, with HCT-116 colon and with IGROV1 ovarian was more than 100 µM throughout. Besides, the TGI with K-562 leukemia, in the assay with NCI-H522 lung and with OVCAR-4 ovarian was more than 100 µM in each case.
For `CCCOC(=O)C1CCC(=O)N1C(=O)C(Cl)Cl` (stereo not given), the TGI in the assay with A549 NSCLC, in the assay with CAKI-1 renal, with DLD-1 colon, in the assay with DMS 114 small cell lung, with HCT-116 colon and in the assay on IGROV1 ovarian was more than 100 µM in each case. For the same molecule, the TGI with K-562 leukemia, with NCI-H522 lung and in the assay with OVCAR-4 ovarian was more than 100 µM in each case.
